Measured values from US4361582A, “Aldose reductase inhibition by γ-oxo-8-fluoranthenebutanoic acid” (Ayerst, McKenna & Harrison Inc., priority 1981, dated 1982).

Assays:
[1] = Acheson et al., Gastroenterology, 37, 735 (1959); cited from earlier work
[2] = target: lens aldose reductase (Bos taurus, UniProt P16116); experiment: in vitro aldose reductase inhibition test (modified Hayman and Kinoshita procedure); assay type: biochemical, bovine; conditions: statement in words
Source text: In the present case the procedure of Hayman and Kinoshita is modified in that the final chromatography step is omitted in the preparation of the enzyme from bovine lens.

O=C(O)CCC(=O)c1ccc2c(c1)-c1cccc3cccc-2c13 [Florantyrone, γ-Oxo-8-fluoranthenebutanoic acid]
hydrocholeretic activity [1]: has hydrocholeretic activity
inhibitor of lens aldose reductase [2]: potent inhibitor of lens aldose reductase
